Where a name gives a salt, the structure may show the parent alone.
Experiments:
β2AR-βarr2 [1] = target: T1, β2AR-βarr2 (Homo sapiens, UniProt P07550+P32121); test: Saturation binding of [3H] DHA, membranes of t β2AR-βarr2 HEK 293 cells
β2AR-Gαs = β2AR-Gαs (Homo sapiens, UniProt P07550); test: Saturation binding of [3H] DHA, membranes of t β2AR-Gαs HEK 293 cells
β2AR = β2AR (Homo sapiens, UniProt P07550); assay type: binding
β2AR-βarr2 [2] = target: T1, β2AR-βarr2; test: ERK1/2 phosphorylation; assay type: cell-based; settings: t β2AR-βarr2 HEK 293; PTX 100ng/ml overnight

β2AR, sequence (P07550 whole entry): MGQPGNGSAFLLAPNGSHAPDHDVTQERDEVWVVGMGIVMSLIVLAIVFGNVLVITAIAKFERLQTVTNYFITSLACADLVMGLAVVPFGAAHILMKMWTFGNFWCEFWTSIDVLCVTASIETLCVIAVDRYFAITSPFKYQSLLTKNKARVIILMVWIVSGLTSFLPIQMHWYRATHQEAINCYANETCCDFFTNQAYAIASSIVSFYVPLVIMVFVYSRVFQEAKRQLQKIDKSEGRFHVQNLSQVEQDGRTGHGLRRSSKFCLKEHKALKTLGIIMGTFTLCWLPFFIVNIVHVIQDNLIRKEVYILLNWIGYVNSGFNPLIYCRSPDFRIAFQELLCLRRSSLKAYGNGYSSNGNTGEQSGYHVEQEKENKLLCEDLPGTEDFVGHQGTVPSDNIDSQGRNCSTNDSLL

## CCCc1ccccc1OC[C@@H](O)CNC(C)C [[3H] dihydroalprenolol, Dihydroalprenolol hydrochloride, levo‐[ring, propyl‐^3H(N)]‐]
β2AR-βarr2 [1]
  Kd: 0.233 ± 0.022 nM
β2AR-Gαs
  Kd: 0.213 ± 0.049 nM
β2AR
  Kd: 0.148 ± 0.028 nM

## pertussis toxin
β2AR-βarr2 [2]
  effect on constitutive ERK1/2 phosphorylation: no effect
